# Source: ChEMBL document CHEMBL1133384, “Synthesis and study of a new adenine-acridine tandem, inhibitor of exonuclease III” (Bioorg Med Chem Lett, 2000)
# How the values were obtained:
# Nucleic Acid = test: Compound was evaluated for its binding affinity constant for native calf thymus DNA in competition experiment with ethium bromide; type: nucleic-acid assay, Bos taurus
# L1210 = test: The cytotoxicity against murine leukemia L1210; type: functional, cell-based; settings: Mus musculus
structure (smiles),measurement,setting,value
COc1ccc2nc3cc(Cl)ccc3c(NCCCN(CCC(=O)NCCn3cnc4c(N)ncnc43)C(=N)N)c2c1.Cl,Ka,Nucleic Acid,200000 M⁻¹
same,IC50,L1210,> 100 µM
